Reference: publication PMC9659204, “Biochemical Characterization of Pyranose Oxidase from Streptomyces canus—Towards a Better Understanding of Pyranose Oxidase Homologues in Bacteria” (International Journal of Molecular Sciences, 2022)

Test system: T1, ScPOx (pyranose oxidase from Streptomyces canus)
T1 construct: synthetic codon-optimised gene in pET-21d+ (NcoI/HindIII), C-terminal His6 tag, E. coli BL21(DE3); 52 kDa monomer, noncovalent FAD
Experiment: steady-state kinetics, spectrophotometric
Type: biochemical
Conditions: apparent; electron acceptor; 4 M D-xylose as electron donor; 50 mM potassium phosphate pH 6.5; 30 °C
From the text: steady-state kinetics, spectrophotometric on ScPOx (pyranose oxidase from Streptomyces canus)

SMILES | Km [µM]
O=C1C(Cl)=CC(=Nc2ccc(O)cc2)C=C1Cl [DCIP] | 50 ± 10
O=C1C=CC(=O)C=C1 [p-BQ] | 130 ± 20
